Assay results published in patent US12121565B2, “Methods of treatment of specific cancers with NLRP3 inhibitors and anti-PD1/PD-L1 antibodies” (Duke University, priority 2019, dated 2024).

Test system: human melanoma tissue specimens
Assay: RNASeq of human melanoma tissue at baseline and during disease progression
Format: in vivo
Settings: following disease progression versus baseline
Text: All plasma samples were collected from 17 advanced melanoma patients undergoing anti-PD-1 ab immunotherapy at week 0 and week 12 on an ongoing tissue acquisition protocol investigating checkpoint inhibitor resistance at Duke Cancer Institute (NCT02694965). Three paired tumor specimens obtained at week 0 and at the time of disease progression while undergoing anti-PD-1 ab immunotherapy were collected at Vanderbilt University Medical Center (Institutional Protocol #: 100178). Treatment responses were evaluated based on RECIST (Response Evaluation Criteria in Solid Tumors v1.1).
RNA-seq was performed by Duke Sequencing and Genomic Technologies Shared Resources. A complementary DNA library was prepared via oligo-dT-directed reverse transcription (Ambion) and subjected to deep sequencing on IlluminaHiSeq4000 (50-bp single-read sequencing; Anti-PD-1 resistance Study RNA-seq, accession number: SAMN09878780). RNA-seq data generated here and publicly available RNA-seq data were processed by Duke Center for Genomic and Computational Biology using the TrimGaloretoolkit that uses Cutadapt to trim low-quality bases and Illumina sequencing adapters from the 3′ end of the reads. Only reads that were of 20 nucleotides (nt) or longer after trimming were kept for further analysis. Reads were mapped to the GRCm38v68 version of the mouse genome and transcriptome using the STAR RNA-seq alignment tool. […]

For “nivolumab: an anti-PD-1 antibody, available from Bristol-Myers Squibb Co”, the “expression of myeloid markers CXCL1, CD33, ITGAM, CXCR2, S00A8 and S00A9” value was “elevated expression”.
